Data taken from US9562035B2, “Benzamide derivative useful as FASN inhibitors for the treatment of cancer” (Janssen Pharmaceutica NV, priority 2013, dated 2017).

Experiments:
[1] = molecular target: T1, hFASN enzyme (full length) (Homo sapiens, UniProt P49327); experiment: Fatty Acid Synthase (FASN) Inhibition Scintillation Proximity Assay; type: biochemical; conditions: for IC50: mean where tested more than once, ~ = standard error of pIC50 larger than 0.5; for inhibition at 10 µM: read-out: FASN % Effect @1E−05M
T1 construct: 10 μL hFASN enzyme (full length, 300 ng, purified in house); made in house
How it was run: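 Purified full-length human FASN (300 ng) incubated 60 min at room temperature with NADPH, [3H]-acetyl-CoA and malonyl-CoA in 100 mM KH2PO4 pH 7.5, 1 mM DTT; compound at 30 μM to 0.01 μM. [3H]-palmitate captured by SPA imaging beads; IC50 from 4-parameter fit, reported as pIC50.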

[2] = molecular target: T2, FASN Keto-reductase Domain (Homo sapiens, UniProt P49327); experiment: Fatty Acid Synthase Keto-Reductase Domain (FASN KR) Inhibition; type: biochemical; conditions: mean where tested more than once; read-out: FASN K-R Domain pIC50 (converted)
T2 construct: 10 μL hFASN enzyme (full length, 300 ng, purified in house) and 360 μM NADPH; made in house
How it was run: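 Full-length human FASN (300 ng) in 100 mM KH2PO4 pH 7.5 with 360 μM NADPH and 180 mM ethyl acetoacetate (stock); A340 decrease read over 20 min at room temperature.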

A2780 ovarian cells [3] = experiment: A2780 Ovarian Cell Proliferation Assay in Lipid Reduced Medium, without Palmitate; type: cell-based; conditions: Homo sapiens, A2780; lipid reduced medium, without palmitate, 96 h, MTT; read-out: Proliferation A2780 w/o Palmitate pIC50 (converted)
How it was run: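 A2780 cells were seeded in 10% FCS medium and switched next day to 10% lipid-reduced serum without palmitate. Compounds at 0.01–30 μM were added with 0.2% DMSO, 0.2% fatty-acid-free BSA and 0.25% ethanol final. After 96 h, MTT absorbance at 544 nm was normalized to plate controls, and IC50/pIC50 came from a 4-parameter logistic fit.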

A2780 ovarian cells [4] = experiment: A2780 Ovarian Cell Proliferation Assay in Lipid Reduced Medium, with Palmitate (control); type: cell-based; conditions: Homo sapiens, A2780; lipid reduced medium, 25 μM palmitate, 96 h, MTT; read-out: Proliferation A2780 with Palmitate pIC50 (converted)
How it was run: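 A2780 cells were seeded in RPMI1640 with 10% FCS, then switched next day to medium with 10% lipid-reduced serum. Compound was added with final 25 μM palmitate, 0.2% fatty-acid-free BSA and 0.2% DMSO, and incubated 96 h at 37 °C. Read-out was MTT absorbance at 544 nm; pIC50 = −log(IC50) from curve fit.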

T1 sequence (P49327 whole entry): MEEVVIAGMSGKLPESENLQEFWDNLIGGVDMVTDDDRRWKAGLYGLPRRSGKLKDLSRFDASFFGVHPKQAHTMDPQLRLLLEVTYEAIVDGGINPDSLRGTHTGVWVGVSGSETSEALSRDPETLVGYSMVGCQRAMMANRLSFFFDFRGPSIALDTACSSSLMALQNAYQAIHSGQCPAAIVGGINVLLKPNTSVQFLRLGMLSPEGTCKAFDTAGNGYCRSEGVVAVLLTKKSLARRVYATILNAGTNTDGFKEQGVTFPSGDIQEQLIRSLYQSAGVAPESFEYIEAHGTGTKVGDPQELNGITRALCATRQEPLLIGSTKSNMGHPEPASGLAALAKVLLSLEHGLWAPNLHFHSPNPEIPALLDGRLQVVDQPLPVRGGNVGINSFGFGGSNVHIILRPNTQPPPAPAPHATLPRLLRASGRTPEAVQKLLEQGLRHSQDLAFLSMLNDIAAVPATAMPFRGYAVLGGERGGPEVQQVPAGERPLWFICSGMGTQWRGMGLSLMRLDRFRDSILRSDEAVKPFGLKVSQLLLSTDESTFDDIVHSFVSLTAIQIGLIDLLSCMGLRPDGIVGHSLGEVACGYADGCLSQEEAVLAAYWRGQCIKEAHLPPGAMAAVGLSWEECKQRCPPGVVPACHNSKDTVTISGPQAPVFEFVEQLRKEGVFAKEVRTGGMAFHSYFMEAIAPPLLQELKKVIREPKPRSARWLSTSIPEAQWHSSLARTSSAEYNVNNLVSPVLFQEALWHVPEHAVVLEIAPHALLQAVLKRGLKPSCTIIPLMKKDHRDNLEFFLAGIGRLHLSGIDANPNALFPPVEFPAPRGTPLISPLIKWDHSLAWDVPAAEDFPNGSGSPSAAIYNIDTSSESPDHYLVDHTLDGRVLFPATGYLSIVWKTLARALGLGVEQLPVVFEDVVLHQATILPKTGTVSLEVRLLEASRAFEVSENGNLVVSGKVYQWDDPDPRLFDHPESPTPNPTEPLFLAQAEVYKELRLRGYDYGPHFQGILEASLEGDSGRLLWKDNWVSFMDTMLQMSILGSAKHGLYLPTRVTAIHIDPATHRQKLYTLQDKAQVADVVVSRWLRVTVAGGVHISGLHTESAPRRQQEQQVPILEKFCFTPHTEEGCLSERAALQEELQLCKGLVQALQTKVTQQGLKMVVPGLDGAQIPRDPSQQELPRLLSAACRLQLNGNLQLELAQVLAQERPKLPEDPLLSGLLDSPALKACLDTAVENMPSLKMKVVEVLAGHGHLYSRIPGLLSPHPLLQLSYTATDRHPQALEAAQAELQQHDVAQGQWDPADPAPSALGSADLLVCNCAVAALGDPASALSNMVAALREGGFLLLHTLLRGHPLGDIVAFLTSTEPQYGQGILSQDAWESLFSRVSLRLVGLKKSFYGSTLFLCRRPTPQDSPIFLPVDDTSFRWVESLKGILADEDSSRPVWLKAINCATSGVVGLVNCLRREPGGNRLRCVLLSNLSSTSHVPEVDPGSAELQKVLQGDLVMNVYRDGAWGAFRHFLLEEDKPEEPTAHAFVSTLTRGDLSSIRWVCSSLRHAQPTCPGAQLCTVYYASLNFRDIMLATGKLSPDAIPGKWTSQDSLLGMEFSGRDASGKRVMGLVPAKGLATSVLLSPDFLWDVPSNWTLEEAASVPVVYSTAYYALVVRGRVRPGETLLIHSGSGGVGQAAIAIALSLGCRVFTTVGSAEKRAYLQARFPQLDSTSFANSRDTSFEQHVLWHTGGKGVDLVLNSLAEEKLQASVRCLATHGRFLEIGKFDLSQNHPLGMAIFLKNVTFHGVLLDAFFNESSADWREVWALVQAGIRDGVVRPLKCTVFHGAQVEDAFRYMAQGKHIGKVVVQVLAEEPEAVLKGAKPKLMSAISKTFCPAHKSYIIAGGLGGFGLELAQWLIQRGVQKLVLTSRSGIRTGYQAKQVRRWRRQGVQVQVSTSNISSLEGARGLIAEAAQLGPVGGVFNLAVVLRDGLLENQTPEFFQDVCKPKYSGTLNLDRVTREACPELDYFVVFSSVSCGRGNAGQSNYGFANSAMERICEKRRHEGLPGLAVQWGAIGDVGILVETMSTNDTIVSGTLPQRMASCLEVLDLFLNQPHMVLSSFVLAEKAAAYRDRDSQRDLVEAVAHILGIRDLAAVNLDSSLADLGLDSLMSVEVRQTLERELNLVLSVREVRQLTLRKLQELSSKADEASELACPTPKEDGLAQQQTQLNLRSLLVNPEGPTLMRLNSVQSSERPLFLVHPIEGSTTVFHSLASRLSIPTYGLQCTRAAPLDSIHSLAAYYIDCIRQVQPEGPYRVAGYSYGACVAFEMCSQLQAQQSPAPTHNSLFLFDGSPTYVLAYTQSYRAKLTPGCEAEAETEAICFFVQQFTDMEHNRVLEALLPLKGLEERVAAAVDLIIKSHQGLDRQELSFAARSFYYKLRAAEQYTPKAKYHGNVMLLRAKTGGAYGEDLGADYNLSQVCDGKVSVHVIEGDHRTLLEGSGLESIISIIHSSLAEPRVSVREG
T2 sequence (P49327 whole entry, the tested form may be a part): as the sequence (P49327 whole entry) above

Row | SMILES | IC50 [1] [nM] | inhibition at 10 µM [1] [%] | IC50 [2] [nM] | IC50 (A2780 ovarian cells [3]) [nM] | IC50 (A2780 ovarian cells [4]) [nM]
1 | Cc1ccc(C(=O)N2CCC(c3ccc(-c4cnn(CC5CCC5)c4)cc3)CC2)cc1NC(=O)c1ccc(NC(C)C)nc1 [Compound 221, N-(5-(4-(4-(1-(cyclobutylmethyl)-1H-pyrazol-4-yl)phenyl)piperidine-1-carbonyl)-2-methylphenyl)-6-(isopropylamino)nicotinamide] | 75.9 | 109 | 245 | 91.2 | 5010
2 | Cc1ccc(C(=O)N2CCC(c3ccc(-c4cnn(C)c4)cc3)CC2)cc1NC(=O)C1CN(C)C1 [Compound 222, 1-methyl-N-(2-methyl-5-(4-(4-(1-methyl-1H-pyrazol-4-yl)phenyl)piperidine-1-carbonyl)phenyl)azetidine-3-carboxamide] | 22.4 | 113 | 60.3 | 8.71 | > 10000
3 | Cc1ccc(C(=O)N2CCC(c3ccc(-c4ccsc4)cc3)CC2)cc1NC(=O)c1ccc(NC(C)C)nc1 [Compound 223, 6-(isopropylamino)-N-(2-methyl-5-(4-(4-(thiophen-3-yl)phenyl)piperidine-1-carbonyl)phenyl)nicotinamide] | 69.2 | 102 | 141 | 148 | 2040
4 | Cc1ccc(C(=O)N2CCC(c3ccc(-c4ccccc4F)cc3)CC2)cc1NC(=O)c1ccc(NC(C)C)nc1 [Compound 224, N-(5-(4-(2′-fluoro-[1,1′-biphenyl]-4-yl)piperidine-1-carbonyl)-2-methylphenyl)-6-(isopropylamino)nicotinamide] | 170 | 92 | 282 | 372 | 5750
5 | Cc1ccc(C(=O)N2CCC(c3ccc(-c4ccccc4)cc3)CC2)cc1NC(=O)c1ccc(NC(C)C)nc1 [Compound 225, N-(5-(4-([1,1′-biphenyl]-4-yl)piperidine-1-carbonyl)-2-methylphenyl)-6-(isopropylamino)nicotinamide] | 339 | 79 | 457 | 589 | 1580
6 | Cc1ccc(C(=O)N2CCC(c3ccc(-c4cccc(F)c4)cc3)CC2)cc1NC(=O)c1ccc(NC(C)C)nc1 [Compound 230, N-(5-(4-(3′-fluoro-[1,1′-biphenyl]-4-yl)piperidine-1-carbonyl)-2-methylphenyl)-6-(isopropylamino)nicotinamide] | 363 | 79 | 525 | 692 | 2510
7 | COc1ccc(C(=O)N2CCC(c3ccc(-c4cnn(C)c4)cc3)CC2)cc1NC(=O)c1ccc(Cl)nc1 [Compound 231, 6-chloro-N-(2-methoxy-5-(4-(4-(1-methyl-1H-pyrazol-4-yl)phenyl)piperidine-1-carbonyl)phenyl)nicotinamide] | 33.9 | 114 | 107 | 115 | > 10000
8 | Cc1ccc(C(=O)N2CCC(c3ccc(-c4ccccc4C)cc3)CC2)cc1NC(=O)c1ccc(NC(C)C)nc1 [Compound 232, 6-(isopropylamino)-N-(2-methyl-5-(4-(2′-methyl-[1,1′-biphenyl]-4-yl)piperidine-1-carbonyl)phenyl)nicotinamide] | 324 | 85 | 490 | 389 | 6610
9 | Cc1cccc(-c2ccc(C3CCN(C(=O)c4ccc(C)c(NC(=O)c5ccc(NC(C)C)nc5)c4)CC3)cc2)c1 [Compound 233, 6-(isopropylamino)-N-(2-methyl-5-(4-(3′-methyl-[1,1′-biphenyl]-4-yl)piperidine-1-carbonyl)phenyl)nicotinamide] | 575 | 72 | 776 | 759 | 955
